# Assay results from paper PMC9750872, “Ras-mutant cancers are sensitive to small molecule inhibition of V-type ATPases in mice” (Nature biotechnology, 2022).
# Key:
# [1] = target: T1, human H subunit (ATP6V1H) (Homo sapiens, UniProt Q9UI12); assay: Bio-layer interferometry (BLI); type: binding; settings: biotinylated-249C on streptavidin sensors
# T1 construct: GST (cleaved yes); host or cells: Rosetta2(DE3)pLysS (E. coli)
# From the text: Figure 4. […] (A) Model of the reversible assembly of V-ATPase. Cytosolic V1 subunits are depicted in blue and membrane Vo subunits in purple. Upon V-ATPase assembly, ATP is hydrolyzed to ADP accompanied by proton (H^+) pumping and luminal acidification (decrease in pH) (Created with BioRender). […] The amount of subunit B2 present in the membrane fraction indicates the amount of assembled V-ATPase. A representative Western blot is presented. […] Cells were mechanically lysed, and a fraction containing FITC-Dextran-loaded lysosomes was isolated by sedimentation centrifugation. Fluorescence was measured over time to assess pH-dependent quenching following addition of 1 mM magnesium-ATP (predetermined). […] Representative of 5 individual experiments with n = 3 for each is presented (mean ± SD) (D) Mammalian V-ATPase activity measured in the absence and presence of 1 μM 249C and 1 μM BafA1. Data shown are mean ± SD; n = 3. Bio-layer inferometry (BLI) of (E) the entire mammalian V-ATPase complex (association protein concentrations: 30, 60, 120, 240 nM) and (F) the individual human H subunit (ATP6V1H) (association protein concentrations: 16,800 and 21,000 nM) against biotinylated-249C loaded onto streptavidin sensor tips. A reference sensor was subtracted from the signal to blank the system. The ForteBio Octet® Software on the BLI system was used to calculate Kd s. […]
# [2] = tested on: NSCLC A549 (KRASG12S) xenografts; assay: A549 lung cancer xenograft; type: in vivo; settings: 10 mg/kg twice daily i.p.
# Protocol: Finally, to test whether 249C could inhibit autophagy and attenuate the growth of mutant KRAS-dependent cancers as a single agent in vivo, we evaluated 249C in a mouse xenograft model of lung cancer (NSCLC, A549). Briefly, we injected mutant KRAS A549 (G12S) cells into the flanks of athymic mice to establish xenografts, randomly assigned mice to vehicle control (n = 7) or 249C-recipient groups (n = 7, 10 mg/kg) with twice daily i.p. injections, and recorded tumor volume and body weight over time. […] We subsequently sacrificed all mice and excised their tumors for further investigation.
# 5 × 10^6 A549 cells were subcutaneously injected into the lower left flank of 6–8-week old athymic nude female mice (Charles River strain # 088, homozygous NU/NU). To assess establishment of tumors, mice were examined 5 days post-inoculation and were randomly segregated into two treatment groups [vehicle control, 10 mg/kg 249C IP, n = 7 per group] and were treated twice daily with the drug in NPM or vehicle control (5% weight aqueous solution of carboxymethyl cellulose). Tumor volumes were calculated using the formula (L × W × H)/2 with recorded caliper measurements. Survival curves and statistical analyses were performed using Excel. Animals were maintained on a standard chow diet; 12:12 dark/light cycle and in group housing in hepa-filtered cages. All animal procedures were performed under IACUC approved protocols and guidelines. Animals from both groups were weighed every 3 days. Plasma concentration was measured from blood collected using standard and established protocols.
# MEFs KRAS G12V = assay: Cell proliferation of Ras-less MEFs expressing human KRAS/BRAF; settings: Mus musculus
# Protocol: Cell proliferation assays of stable cell lines treated with V-ATPase inhibitors 249C and BafA1, HCQ analog (DC661), KRASG12C inhibitor (AMG510) and autophagy inducer (CMA). For each bar, n = 3. Representative of 3 biological replicates (mean ± SD). Two-sided t-test with no adjustments for multiple comparisons.
# Logarithmically growing cells were plated in antibiotic-free medium supplemented with 2% fetal bovine serum at a density of 5,000 cells per well. The next day, cells were treated in triplicates with increasing doses of in-house small molecule inhibitor drugs and a DMSO vehicle control for 3 days and subsequently assessed for cell viability by measurement of ATP with CellTiter-Glo Luminescent Cell Viability Assay (Promega). Signal intensity was read on a Glomax™ 96 Microplate Luminometer (Promega) with GLOMAX software (version 1.9.3) and percent cell survival was calculated based on the reading of vehicle control cells set as 100% using Excel (2012) and GraphPad Prism (version 6)Each compound was tested a minimum of 2 times with n = 3. All cell proliferation assays (cancer cell lines or MEFs) were done in a similar way.
# T1 sequence (Q9UI12 whole entry): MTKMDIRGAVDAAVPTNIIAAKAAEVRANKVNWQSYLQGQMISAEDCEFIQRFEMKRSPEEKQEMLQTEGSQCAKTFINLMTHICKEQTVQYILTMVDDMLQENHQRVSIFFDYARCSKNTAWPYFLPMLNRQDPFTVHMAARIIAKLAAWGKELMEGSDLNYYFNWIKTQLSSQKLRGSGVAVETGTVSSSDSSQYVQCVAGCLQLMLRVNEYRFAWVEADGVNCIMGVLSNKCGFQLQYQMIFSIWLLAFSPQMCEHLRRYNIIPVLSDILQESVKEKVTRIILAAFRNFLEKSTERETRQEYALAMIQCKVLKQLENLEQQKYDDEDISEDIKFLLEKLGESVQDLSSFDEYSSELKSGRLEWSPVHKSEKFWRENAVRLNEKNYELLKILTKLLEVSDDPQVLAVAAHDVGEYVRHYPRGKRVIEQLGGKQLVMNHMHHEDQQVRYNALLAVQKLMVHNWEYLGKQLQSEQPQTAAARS
compound,measurement,setting,value
CN1CCOC(CNC(=O)C2(C)C(c3ccc(Cl)o3)C(c3ccc(F)cc3F)=NN2c2ccc(F)cc2F)C1 (centres unmarked) [Compound 249C],Kd,[1],501 nM
same,tumor volume vs vehicle,[2]; athymic mice,significantly lower
same,tumor mass vs vehicle,[2]; end point,lower
same,tissue weight of treated mice vs vehicle,[2]; mice bearing A549 xenografts,No significant difference in tissue weight
same,IC50,MEFs KRAS G12V,150 nM
